Measurements reported in PubChem BioAssay AID1963971 (Molecular Pharmacology Branch, DTP, NCI, 2024).

System: 953936-095-R-J2-PDC spheroids with HUVEC/MSC, viability
Test: Anticancer human tumor 953936-095-R-J2-PDC patient-derived cervical squamous cell carcinoma cell line growth inhibition [PI3K]
Details: for IC50: curve of first compound; for viability, T/C: stronger effect = lower value
Method in brief: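 Complex 3D spheroids (cancer cells + endothelial HUVEC + mesenchymal stem cells); drug pairs of targeted agent x inavolisib/alpelisib/duvelisib/copanlisib; half-log series from ~Cmax, max 10 microM if Cmax unknown; endpoint viability.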

[1] = second compound 0.0316 µM, first compound 0.0316 µM
[2] = second compound 0.0316 µM, first compound 0.1 µM
[3] = second compound 0.1 µM, first compound 0.0316 µM
[4] = second compound 0.1 µM, first compound 0.1 µM
[5] = second compound 0.316 µM, first compound 0.0316 µM
[6] = second compound 0.316 µM, first compound 0.1 µM
[7] = second compound 1 µM, first compound 0.0316 µM
[8] = second compound 1 µM, first compound 0.1 µM
[9] = second compound 3.16 µM, first compound 0.0316 µM
[10] = second compound 3.16 µM, first compound 0.1 µM
[11] = second compound 10 µM, first compound 0.0316 µM
[12] = second compound 10 µM, first compound 0.1 µM
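Also: spheroids exposed to compounds for seven days before read-out.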

**Q.** With `CC(=O)c1c(C)c2cnc(Nc3ccc(N4CCNCC4)cn3)nc2n(C2CCCC2)c1=O` + CC(Nc1ncnc2nc[nH]c12)c1cc2cccc(Cl)c2c(=O)n1-c1ccccc1 as the compound, how does the IC50 (second compound 0.0316 µM) read?
**A.** Its IC50 is greater than 100 nM.

**Q.** And the IC50 (second compound 0.1 µM)?
**A.** The IC50 was greater than 100 nM.

**Q.** And the IC50 (second compound 0.316 µM)?
**A.** The IC50 was greater than 100 nM.

**Q.** What about the IC50 (second compound 1 µM) of the same compound?
**A.** The IC50 was greater than 100 nM.

**Q.** And the IC50 (second compound 3.16 µM)?
**A.** Its IC50 is greater than 100 nM.

**Q.** What about the IC50 (second compound 10 µM) of the same compound?
**A.** The IC50 was greater than 100 nM.

**Q.** And the viability, T/C (second compound 0.0316 µM, first compound 0.000316 µM)?
**A.** Its viability, T/C is 91.6%.

**Q.** And the viability, T/C (second compound 0.0316 µM, first compound 0.001 µM)?
**A.** Its viability, T/C is 99.4%.

**Q.** And the viability, T/C (second compound 0.0316 µM, first compound 0.00316 µM)?
**A.** Its viability, T/C is 105%.

**Q.** And the viability, T/C (second compound 0.0316 µM, first compound 0.01 µM)?
**A.** Its viability, T/C is 93.9%.

**Q.** And the viability, T/C [1]?
**A.** The viability, T/C was 113%.

**Q.** What about the viability, T/C [2] of the same compound?
**A.** The viability, T/C was 99.4%.

**Q.** And the viability, T/C (second compound 0.1 µM, first compound 0.000316 µM)?
**A.** Its viability, T/C is 93%.

**Q.** And the viability, T/C (second compound 0.1 µM, first compound 0.001 µM)?
**A.** Its viability, T/C is 96.4%.

**Q.** What about the viability, T/C (second compound 0.1 µM, first compound 0.00316 µM) of the same compound?
**A.** The viability, T/C was 105%.

**Q.** And the viability, T/C (second compound 0.1 µM, first compound 0.01 µM)?
**A.** The viability, T/C was 88.2%.

**Q.** What about the viability, T/C [3] of the same compound?
**A.** Its viability, T/C is 99.8%.

**Q.** And the viability, T/C [4]?
**A.** Its viability, T/C is 92.1%.

**Q.** What about the viability, T/C (second compound 0.316 µM, first compound 0.000316 µM) of the same compound?
**A.** Its viability, T/C is 97.8%.

**Q.** And the viability, T/C (second compound 0.316 µM, first compound 0.001 µM)?
**A.** Its viability, T/C is 92.8%.

**Q.** What about the viability, T/C (second compound 0.316 µM, first compound 0.00316 µM) of the same compound?
**A.** The viability, T/C was 90.7%.

**Q.** And the viability, T/C (second compound 0.316 µM, first compound 0.01 µM)?
**A.** The viability, T/C was 86.5%.

**Q.** And the viability, T/C [5]?
**A.** The viability, T/C was 103%.

**Q.** And the viability, T/C [6]?
**A.** The viability, T/C was 83%.

**Q.** And the viability, T/C (second compound 1 µM, first compound 0.000316 µM)?
**A.** The viability, T/C was 107%.

**Q.** What about the viability, T/C (second compound 1 µM, first compound 0.001 µM) of the same compound?
**A.** The viability, T/C was 98.4%.

**Q.** What about the viability, T/C (second compound 1 µM, first compound 0.00316 µM) of the same compound?
**A.** Its viability, T/C is 85.6%.

**Q.** And the viability, T/C (second compound 1 µM, first compound 0.01 µM)?
**A.** The viability, T/C was 94%.

**Q.** What about the viability, T/C [7] of the same compound?
**A.** Its viability, T/C is 81.5%.

**Q.** What about the viability, T/C [8] of the same compound?
**A.** Its viability, T/C is 80.2%.

**Q.** And the viability, T/C (second compound 3.16 µM, first compound 0.000316 µM)?
**A.** Its viability, T/C is 81.4%.

**Q.** What about the viability, T/C (second compound 3.16 µM, first compound 0.001 µM) of the same compound?
**A.** Its viability, T/C is 74.4%.

**Q.** And the viability, T/C (second compound 3.16 µM, first compound 0.00316 µM)?
**A.** The viability, T/C was 78.2%.

**Q.** What about the viability, T/C (second compound 3.16 µM, first compound 0.01 µM) of the same compound?
**A.** The viability, T/C was 83.5%.

**Q.** What about the viability, T/C [9] of the same compound?
**A.** Its viability, T/C is 74.8%.

**Q.** And the viability, T/C [10]?
**A.** Its viability, T/C is 70.7%.

**Q.** What about the viability, T/C (second compound 10 µM, first compound 0.000316 µM) of the same compound?
**A.** Its viability, T/C is 59.9%.

**Q.** And the viability, T/C (second compound 10 µM, first compound 0.001 µM)?
**A.** The viability, T/C was 68.6%.

**Q.** And the viability, T/C (second compound 10 µM, first compound 0.00316 µM)?
**A.** The viability, T/C was 55.5%.

**Q.** What about the viability, T/C (second compound 10 µM, first compound 0.01 µM) of the same compound?
**A.** Its viability, T/C is 69.7%.

**Q.** And the viability, T/C [11]?
**A.** The viability, T/C was 65.1%.

**Q.** And the viability, T/C [12]?
**A.** The viability, T/C was 51.3%.

**Q.** Which results are given for `CNC(=O)c1ccc(N2C(=S)N(c3ccc(C#N)c(C(F)(F)F)c3)C(=O)C2(C)C)cc1F` + CC(Nc1ncnc2nc[nH]c12)c1cc2cccc(Cl)c2c(=O)n1-c1ccccc1?
**A.** IC50 (second compound 0.0316 µM): > 10000 nM; IC50 (second compound 0.1 µM): > 10000 nM; IC50 (second compound 0.316 µM): > 10000 nM; IC50 (second compound 1 µM): > 10000 nM; IC50 (second compound 3.16 µM): > 10000 nM; IC50 (second compound 10 µM): > 10000 nM; viability, T/C [1]: 97.9%; viability, T/C [2]: 108%; viability, T/C (second compound 0.0316 µM, first compound 0.316 µM): 100%; viability, T/C (second compound 0.0316 µM, first compound 1 µM): 91.9%; viability, T/C (second compound 0.0316 µM, first compound 3.16 µM): 103%; viability, T/C (second compound 0.0316 µM, first compound 10 µM): 85.7%; viability, T/C [3]: 94.2%; viability, T/C [4]: 104%; viability, T/C (second compound 0.1 µM, first compound 0.316 µM): 108%; viability, T/C (second compound 0.1 µM, first compound 1 µM): 93%; viability, T/C (second compound 0.1 µM, first compound 3.16 µM): 83.2%; viability, T/C (second compound 0.1 µM, first compound 10 µM): 74.2%; viability, T/C [5]: 111%; viability, T/C [6]: 88.6%; viability, T/C (second compound 0.316 µM, first compound 0.316 µM): 92.4%; viability, T/C (second compound 0.316 µM, first compound 1 µM): 96.3%; viability, T/C (second compound 0.316 µM, first compound 3.16 µM): 95.2%; viability, T/C (second compound 0.316 µM, first compound 10 µM): 70.9%; viability, T/C [7]: 94.3%; viability, T/C [8]: 95.4%; viability, T/C (second compound 1 µM, first compound 0.316 µM): 83.8%; viability, T/C (second compound 1 µM, first compound 1 µM): 88.9%; viability, T/C (second compound 1 µM, first compound 3.16 µM): 84.7%; viability, T/C (second compound 1 µM, first compound 10 µM): 78%; viability, T/C [9]: 76.6%; viability, T/C [10]: 83.1%; viability, T/C (second compound 3.16 µM, first compound 0.316 µM): 71.8%; viability, T/C (second compound 3.16 µM, first compound 1 µM): 82.9%; viability, T/C (second compound 3.16 µM, first compound 3.16 µM): 82.1%; viability, T/C (second compound 3.16 µM, first compound 10 µM): 61.2%; viability, T/C [11]: 62.6%; viability, T/C [12]: 67.6%; viability, T/C (second compound 10 µM, first compound 0.316 µM): 66.6%; viability, T/C (second compound 10 µM, first compound 1 µM): 58.7%; viability, T/C (second compound 10 µM, first compound 3.16 µM): 58.5%; viability, T/C (second compound 10 µM, first compound 10 µM): 55%

**Q.** What does the source list for `Cn1cnc2c(F)c(Nc3ccc(Br)cc3Cl)c(C(=O)NOCCO)cc21` + CC(Nc1ncnc2nc[nH]c12)c1cc2cccc(Cl)c2c(=O)n1-c1ccccc1?
**A.** IC50 (second compound 0.0316 µM): 2090 nM; IC50 (second compound 0.1 µM): 956 nM; IC50 (second compound 0.316 µM): 1160 nM; IC50 (second compound 1 µM): 732 nM; IC50 (second compound 3.16 µM): 366 nM; IC50 (second compound 10 µM): < 9.49 nM; viability, T/C (second compound 0.0316 µM, first compound 0.00949 µM): 79.1%; viability, T/C (second compound 0.0316 µM, first compound 0.03 µM): 78.9%; viability, T/C (second compound 0.0316 µM, first compound 0.0949 µM): 69.7%; viability, T/C (second compound 0.0316 µM, first compound 0.3 µM): 67.6%; viability, T/C (second compound 0.0316 µM, first compound 0.949 µM): 57%; viability, T/C (second compound 0.0316 µM, first compound 3 µM): 46.6%; viability, T/C (second compound 0.1 µM, first compound 0.00949 µM): 90.2%; viability, T/C (second compound 0.1 µM, first compound 0.03 µM): 86.3%; viability, T/C (second compound 0.1 µM, first compound 0.0949 µM): 77.7%; viability, T/C (second compound 0.1 µM, first compound 0.3 µM): 57.6%; viability, T/C (second compound 0.1 µM, first compound 0.949 µM): 54.7%; viability, T/C (second compound 0.1 µM, first compound 3 µM): 39.5%; viability, T/C (second compound 0.316 µM, first compound 0.00949 µM): 90.2%; viability, T/C (second compound 0.316 µM, first compound 0.03 µM): 68.8%; viability, T/C (second compound 0.316 µM, first compound 0.0949 µM): 74.2%; viability, T/C (second compound 0.316 µM, first compound 0.3 µM): 68.2%; viability, T/C (second compound 0.316 µM, first compound 0.949 µM): 53.1%; viability, T/C (second compound 0.316 µM, first compound 3 µM): 36%; viability, T/C (second compound 1 µM, first compound 0.00949 µM): 85.5%; viability, T/C (second compound 1 µM, first compound 0.03 µM): 77.3%; viability, T/C (second compound 1 µM, first compound 0.0949 µM): 65%; viability, T/C (second compound 1 µM, first compound 0.3 µM): 58.8%; viability, T/C (second compound 1 µM, first compound 0.949 µM): 48.1%; viability, T/C (second compound 1 µM, first compound 3 µM): 38.6%; viability, T/C (second compound 3.16 µM, first compound 0.00949 µM): 76.4%; viability, T/C (second compound 3.16 µM, first compound 0.03 µM): 60.5%; viability, T/C (second compound 3.16 µM, first compound 0.0949 µM): 60.4%; viability, T/C (second compound 3.16 µM, first compound 0.3 µM): 54%; viability, T/C (second compound 3.16 µM, first compound 0.949 µM): 42.5%; viability, T/C (second compound 3.16 µM, first compound 3 µM): 33.4%; viability, T/C (second compound 10 µM, first compound 0.00949 µM): 47.5%; viability, T/C (second compound 10 µM, first compound 0.03 µM): 44.4%; viability, T/C (second compound 10 µM, first compound 0.0949 µM): 38.8%; viability, T/C (second compound 10 µM, first compound 0.3 µM): 30.5%; viability, T/C (second compound 10 µM, first compound 0.949 µM): 19.5%; viability, T/C (second compound 10 µM, first compound 3 µM): 14.8%
